In patent US8518930B2, “Therapeutic combination comprising a CDKS inhibitor and an antineoplastic agent” (Nerviano Medical Sciences S.r.l., priority 2008, dated 2013):
Like-named read-outs stand apart in the source and are kept apart here.

Key:
[1] = test system: HCT-116 human colon carcinoma; assay: In vivo antitumor efficacy in combination with 5-FU, subcutaneous xenograft; settings: for T − C: time to reach 1 g
Method: Balb, Nu/Nu male mice, from Harlan (Italy), were maintained in cages with paper filter cover, food and bedding sterilized and water acidified. Fragments of HCT-116 human colon carcinoma were implanted subcutaneously in athymic mice.
(§1) The treatment started when tumors were palpable. Both compounds were prepared immediately before treatment.
5-FU was administered by intravenous route in a volume of 10 ml/kg at the dose of 50 mg/kg on days 1, 8. […] Toxicity was evaluated on the basis of body weigh reduction.

[2] = test system: A2780 human ovarian carcinoma cells; assay: In vitro cytotoxic activity of the combination with gemcitabine (cell proliferation, cellular ATP monitoring); type: cell-based; settings: for IC50: Homo sapiens, single agent, A2780, compound of formula (I) 24 hours, gemcitabine 1 hour, counted 72 hours after first treatment
Method: (§2) Exponentially growing A2780 human ovarian carcinoma cells were seeded and incubated at 37° C. in a humidified 5% CO2 atmosphere. After 24 hours, scalar doses of the compound of formula (I) were added to the medium for 24 hours, cells were washed and gemcitabine added for 1 hour. Cells were then washed and counted 72 hours after the first treatment. Cell proliferation was determined by a cellular adenosine triphosphate monitoring system. Cell proliferation was compared to control cells. The concentration inhibiting cell proliferation by 50% (IC50) was calculated.
(§3) The combination indices (C.I.) were calculated using a computer program for multiple drug effect analysis based on the equation of Chou-Talalay (Adv Enzyme Regul 1984; 22:27-55) for mutually nonexclusive drugs, where a C.I. of <1 indicates a more than additive effect.

[3] = test system: A2780 human ovarian carcinoma cells; assay: In vitro cytotoxic activity of the combination with oxaliplatin (cell proliferation, cellular ATP monitoring); type: cell-based; settings: for IC50: single agent, A2780, oxaliplatin 1 hour, compound of formula (I) 24 hours, counted 72 hours after first treatment
Method: as §2, with “of oxaliplatin” for “of the compound of formula (I)”, “for 1 hour,” for “for 24 hours,”, “and compound of formula (I)” for “and gemcitabine”, “for 24 hours.” for “for 1 hour.”
as §3

[4] = test system: A2780 human ovarian carcinoma cells; assay: In vitro cytotoxic activity of the combination with SN-38 (cell proliferation, cellular ATP monitoring); type: cell-based; settings: for IC50: single agent, A2780, SN-38 1 hour, compound of formula (I) 24 hours, counted 72 hours after first treatment
Method: as §2, with “SN38 is the active metabolite of irinotecan, from which is obtained by hydrolysis. Exponentially” for “Exponentially”, “of SN-38” for “of the compound of formula (I)”, “for 1 hour,” for “for 24 hours,”, “and compound of formula (I)” for “and gemcitabine”, “for 24 hours.” for “for 1 hour.”
as §3

[5] = test system: U87-MG human glioblastoma; settings: for T − C: time to reach 1 g; for Toxicity: male, Balb Nu/Nu (athymic), mouse, in vivo, po, 7 days
Method: Balb, Nu/Nu male mice, from Harlan (Italy), were maintained in cages with paper filter cover, food and bedding sterilized and water acidified. Fragments of U87-MG human glioblastoma were implanted subcutaneously in athymic mice. […] The treatment with temozolomide started when tumors were palpable. Compounds were prepared immediately before treatment.
(§4) Temozolomide was administered orally in a volume of 10 ml/kg at the dose of 25 mg/kg for 5 consecutive days. […] Tumor growth and body weight were measured every 3 days. Tumor growth was assessed by caliper. The two diameters were recorded and the tumor weight was calculated according the following formula: length (mm)×width^2/2. The effect of the antitumor treatment was evaluated as the delay in the onset of an exponential growth of the tumor (see for references, Anticancer drugs 7:437-60,1996). This delay (T-C value) was defined as the difference of time (in days) required for the treatment group (T) and the control group (C) tumors to reach a predetermined size (1 g). Toxicity was evaluated on the basis of body weigh reduction.

[6] = test system: N-592 human small cell lung cancer tumors; settings: for T − C: time to reach 1 g; for Toxicity: male, Balb Nu/Nu (athymic), mouse, in vivo, po, 17 days
Method: Balb, Nu/Nu male mice, from Harlan (Italy), were maintained in cages with paper filter cover, food and bedding sterilized and water acidified. Fragments of N-592 human small cell lung cancer tumors were implanted subcutaneously in athymic mice.
as §1
as §4, with “Topotecan” for “Temozolomide”, “by intravenous route” for “orally”, “6” for “25”, “on days 1, 5, 9, 13, 17.” for “for 5 consecutive days.”, “references” for “references,”, “7:437-60, 1996).” for “7:437-60,1996).”

[7] = compound of formula (I) 20 mg/kg orally twice a day, days 1-7
[8] = compound of formula (I) 40 mg/kg orally twice a day, days 1-7
[9] = temozolomide 25 mg/kg orally, days 1-5

With `O=c1[nH]cc(F)c(=O)[nH]1` [5-FU, 5-fluorouracil, reference compound] the “T − C” value ([1]; 5-FU 50 mg/kg intravenous, days 1, 8) was 2.17 days.
With `Nc1ccn([C@@H]2O[C@H](CO)[C@@H](O)C2(F)F)c(=O)n1` [Gemcitabine, gemcitabine, reference compound] the IC50 [2] was 364 nM.
Molecule `O=C1[O][Pt]2([NH][C@@H]3CCCC[C@H]3[NH]2)[O]C1=O` [Oxaliplatin, oxaliplatin, reference compound] has an IC50 [3] of 2470 nM.
Work on `CCc1c2c(nc3ccc(O)cc13)-c1cc3c(c(=O)n1C2)COC(=O)[C@]3(O)CC` [SN-38, reference compound] yielded an IC50 [4] of 39 nM.
For `CNC(=O)c1nn(C)c2c1C(C)(C)Cc1cnc(Nc3ccc(N4CCN(C)CC4)cc3)nc1-2` [compound of formula (I), 8-[4-(4-methyl-piperazin-1-yl)-phenylamino]-1,4,4-trimethyl-4,5-dihydro-1H-pyrazolo[4,3-h]quinazoline-3-carboxylic acid methylamide], the IC50 [2] was 419 nM, the combination effect ([2]; compound of formula (I) combined with gemcitabine, human tumor cells) was “more than additive (i.e. synergic) effect” and the IC50 ([3]; Homo sapiens) was 876 nM. The combination effect ([3]; compound of formula (I) combined with oxaliplatin, human tumor cells) was “more than additive (i.e. synergic) effect”, the IC50 ([4]; Homo sapiens) was 690 nM and the combination effect ([4]; compound of formula (I) combined with SN-38, human tumor cells) was “more than additive (i.e. synergic) effect”. For the same molecule, the Tumor-free mice [5, 7] was 0/8, the “T − C” value [5, 7] was 1.74 days and the Tumor-free mice [5, 8] was 0/8. For the same molecule, the “T − C” value [5, 8] was 7.14 days, the combination effect ([5]; compound of formula (I) combined with temozolomide, U87-MG xenograft) was “clear synergic effect” and the Toxicity ([5]; 20 mg/kg) was 0/8. For the same molecule, the Toxicity ([5]; 40 mg/kg) was 0/8, the “T − C” value ([6]; Compound of formula (I) 20 mg/kg orally twice a day, days 1-17) was 1.61 days and the “T − C” value ([6]; Compound of formula (I) 30 mg/kg orally twice a day, days 1-17) was 2.98 days. The combination effect ([6]; compound of formula (I) combined with topotecan, N-592 xenograft) was “clear synergistic effect”, the Toxicity ([6]; 20 mg/kg) was 0/7 and the Toxicity ([6]; 30 mg/kg) was 0/7. For the same molecule, the “T − C” value ([1]; Compound of formula (I) 20 mg/kg orally twice a day, days 2-7 and 9-14) was 4.93 days, the combination effect ([1]; compound of formula (I) combined with 5-FU, HCT-116 xenograft) was “clear synergistic effect” and the Toxicity ([1]; male, Balb Nu/Nu (athymic), mouse, in vivo, po, 20 mg/kg) was 0/7.
`Cn1nnc2c(C(N)=O)ncn2c1=O` [temozolomide, reference compound] was tested, and the Tumor-free mice [5, 9] was 1/8 and the “T − C” value [5, 9] was 30.88 days.
In the case of `CC[C@@]1(O)C(=O)OCc2c1cc1n(c2=O)Cc2cc3c(CN(C)C)c(O)ccc3nc2-1` [topotecan, reference compound], the “T − C” value ([6]; topotecan 6 mg/kg intravenous, days 1, 5, 9, 13, 17) is reported as 5.64 days.
